Source: patent publication US11396522B2, “Bis-acetal-based substrates for imaging exo-glycosidase activity” (ALECTOS THERAPEUTICS INC., priority 2017, dated 2022)
Values belong to the molecule of their own block, whether it stands above or below them.

Key:
hOGA [1] = target: T1, hOGA (Homo sapiens, UniProt O60502); test: Interrupted assay for determination of hemiacetal breakdown; type: biochemical; details: hemiacetal generated from the substrate; hOGA stopped after 1 min with Thiamet-G 100 μM
T1 construct: started by addition of hOGA (WT, Full-length, expressed in E. coli. as previously described); made in house; host or cells: E. coli
T1 sequence (O60502 1-916): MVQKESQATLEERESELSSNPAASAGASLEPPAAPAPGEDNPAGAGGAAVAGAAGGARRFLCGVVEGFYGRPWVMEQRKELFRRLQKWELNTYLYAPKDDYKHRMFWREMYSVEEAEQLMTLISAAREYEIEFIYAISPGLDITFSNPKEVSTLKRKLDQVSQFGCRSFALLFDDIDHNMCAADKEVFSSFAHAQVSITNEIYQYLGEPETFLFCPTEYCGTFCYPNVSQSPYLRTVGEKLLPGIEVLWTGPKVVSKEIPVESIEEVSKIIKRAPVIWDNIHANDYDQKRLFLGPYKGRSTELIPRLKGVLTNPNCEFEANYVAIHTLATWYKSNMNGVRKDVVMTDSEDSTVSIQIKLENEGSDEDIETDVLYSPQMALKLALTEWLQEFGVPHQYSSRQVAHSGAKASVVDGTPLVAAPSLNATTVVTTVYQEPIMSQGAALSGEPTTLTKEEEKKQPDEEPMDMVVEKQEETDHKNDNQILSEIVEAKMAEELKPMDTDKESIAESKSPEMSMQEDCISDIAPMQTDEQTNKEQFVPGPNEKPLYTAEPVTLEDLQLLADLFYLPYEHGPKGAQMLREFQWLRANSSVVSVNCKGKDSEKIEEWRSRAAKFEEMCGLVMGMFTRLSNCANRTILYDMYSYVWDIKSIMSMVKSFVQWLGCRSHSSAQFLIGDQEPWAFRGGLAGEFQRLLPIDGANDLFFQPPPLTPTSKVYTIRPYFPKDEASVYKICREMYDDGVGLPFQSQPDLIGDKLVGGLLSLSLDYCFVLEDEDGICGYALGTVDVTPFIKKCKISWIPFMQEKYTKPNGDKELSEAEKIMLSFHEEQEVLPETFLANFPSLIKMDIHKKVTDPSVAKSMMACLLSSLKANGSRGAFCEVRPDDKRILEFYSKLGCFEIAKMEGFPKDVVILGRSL
Method: For some experiments, fluorescence kinetic assays were performed using a Varian Cary Eclipse Spectrophotometer set for 335/493 nm excitation/emission wavelengths. Slits were set at 10 nm and the detector was set on Medium voltage. Enzymatic reactions with human OGA were carried out in PBS at 37° C. and were started by addition of hOGA (WT, Full-length, expressed in E. coli. as previously described) in a total volume of 160 μL (Starna sub-micro Fluorometer cuvette). For measurements of rates using different concentrations of substrates, a hOGA concentration of 100 nM was used. For hOGA titration, 25 μM of Glyco-BABS were added to various concentration of hOGA. For interrupted assay, reaction was started by addition of hOGA (680 nM final) in solutions of GlcNAc-BABS in PBS. […] For hemiacetal breakdown rate measurements, data after Thiamet-G addition was extracted and fitted using Prism software. EDANS standard curve was established using endpoint fluorescence measurements of serial dilutions of EDANS in the relevant buffer using the same instrument parameters. Inner-Filter effect measurements were carried out in cuvette by measuring fluorescence of several concentrations of EDANS in presence of various concentrations of GlcNAc-BABS. Kinetics with Glc-BABS and GBA enzymes (GBA1 and GBA3 purchased from R&D Systems), kinetics with GALC (R&D systems) and Gal-BABS, pH stability, quenching efficiency, some inner-filter effect experiments and lysates experiments were carried out using a Molecular Devices SpectraMax i3× plate reader. Emission/Excitation wavelengths were set at 350 and 490 nm respectively for EDANS/DABCYL Glyco-BABS and at 565 and 610 nm respectively for TAMRA/BHQ2 Glyco-BABS. Fluorescence measurements were performed using Costar 96-well black plates or Nunc 384-well black plates after sample preparation in 96-well mixing plates. For GBA1, the continuous assay was performed in citrate buffer (50 mM, pH 5.5) in the presence of 0.1% Triton, 1 mg/mL BSA and 0.14% taurodeoxycholate at 25° C. […]

hOGA [2] = target: T1, hOGA; test: Turnover by hOGA within SK-N-SH lysate; type: biochemical
Method: For cell lysates experiments, SK-N-SH cells were cultured in EMEM media supplemented with 10% FBS and Penicillin/Streptomycin antibiotics. Cells were collected, washed with PBS and lyzed using ice-cold NP-40 lysis buffer (TRIS-HCl 50 mM pH 7.4, NP-40 1%, NaCl 150 mM). After centrifugation, the supernatant was diluted in PBS. The quantity of lysate used in each measurement well (384-well plate) was equivalent to 25000 cells. […] Reactions were started by adding the substrate at a final concentration of 20 μM. This experiment was carried out in quadruplicates and the rates were determined by establishing a standard curve for EDANS fluorescence in the SK-N-SH lysate.
To evaluate the compatibility of the BABS design with complex cellular extracts, we also measured the turnover of GlcNAc-Br-BABS in SK-N-SH cell lysate in the presence of increasing concentrations of hOGA (FIG. 9). […] Buffer control consists of PBS supplemented to lysis buffer. […] Error bars represent standard deviation over quadruplicate.

[3] = pH stability of Glyco-BABS; type: physicochemical; details: 5 μM, up to 72 h, pH 2 to 10
Excerpt: One concern with the Glyco-BABS design was the known lability of acetals under acidic conditions that has been exploited in pH-sensitive prodrugs or linkers for drug delivery.^41,42 However, we recognized that carbohydrate anomeric acetals are chemically distinct from regular acetals. Due to stabilization by the endocyclic oxygen, we expected these bis-acetals would show stability across a range of physiological pH values. We therefore assessed the stability of the bis-acetal motif toward acid and base hydrolysis (FIG. 8). To do so, we tested the pH stability of 5 μM of GlcNAc-Br-BABS 1, GlcNAc-OH-BABS 2, Glc-OH-BABS 6 and Glc-H-BABS 7 at different pH over time. We prepared solutions at various pH by mixing 0.2 M KCl+0.1 M HCl with 0.2 M KCl+0.1 M KOH. Fluorescence of EDANS and Glyco-BABS solutions (5 μM, 45 μL) at different pH was measured at different time points in Nunc 384-well plates using a SpectraMax i3× plate reader. Data (triplicates) support the highly efficient quenching and the stability of these substrates over a wide range of pH.

human O-GlcNAcase (hOGA) = target: T2, human O-GlcNAcase (hOGA) (Homo sapiens, UniProt O60502); details: literature value (ref 39); cited from earlier work
T2 construct: started by addition of hOGA (WT, Full-length, expressed in E. coli. as previously described); made in house; host or cells: E. coli
T2 sequence (O60502 1-916): T1 sequence (O60502 1-916)

- first order rate constant (k3) for hemiacetal breakdown (hOGA [1]): 0.01 s⁻¹
- turnover in SK-N-SH cell lysate with added hOGA (hOGA [2]; 20 μM substrate, 25° C., increasing hOGA): efficiently processed within lysates
- pH stability (increase of fluorescence) [3]: no significant increase of fluorescence
SMILES: CC(=O)N[C@H]1[C@H](O[C@@H](OCCOCCn2cc(CNC(=O)c3ccc(/N=N/c4ccc(N(C)C)cc4)cc3)nn2)[C@@](C)(Br)C(=O)NCCNc2cccc3c(S(=O)(=O)O)cccc23)O[C@H](CO)[C@@H](O)[C@@H]1O [Compound 1, 5-((2-((2R,3R)-3-(((2S,3R,4R,5S,6R)-3-acetamido-4,5-dihydroxy-6-(hydroxymethyl)tetrahydro-2H-pyran-2-yl)oxy)-2-bromo-3-(2-(2-(4-((4-((E)-(4-(dimethylamino)phenyl)diazenyl)benzamido)methyl)-1H-1,2,3-triazol-1-yl)ethoxy)ethoxy)-2-methylpropanamido)ethyl)amino)naphthalene-1-sulfonic Acid]

SMILES: CO[C@@H]1O[C@H](CO)[C@@H](O)[C@H](O)[C@H]1NC(C)=O [methyl β-D-N-acetylglucopyranoside]
- second order rate constant with hOGA (human O-GlcNAcase (hOGA)): 440 M⁻¹ s⁻¹

- inhibition of substrate turnover in SK-N-SH lysate (hOGA [2]; Thiamet-G 200 μM, substrate GlcNAc-Br-BABS 1): completely inhibits
SMILES: CCNC1=N[C@@H]2[C@@H](O)[C@H](O)[C@@H](CO)O[C@@H]2S1 [Thiamet-G, (3aR,5R,6S,7R,7aR)-2-(ethylamino)-3a,6,7,7a-tetrahydro-5-(hydroxymethyl)-5H-Pyrano[3,2-d]thiazole-6,7-diol, reference compound]
